In ChEMBL document CHEMBL5356962, “Synthesis, activity, and their relationships of 2,4-diaminonicotinamide derivatives as EGFR inhibitors targeting C797S mutation” (Bioorg Med Chem Lett, 2024) one finds IC50 and GI50 data, which are given here for 13 molecules.

Test [1] addresses Epidermal growth factor receptor (Homo sapiens, UniProt P00533). As to the kind of experiment: Inhibition of wild-type EGFR (unknown origin) phosphorylation.
The target in test [2] is Epidermal growth factor receptor (Homo sapiens, UniProt P00533, C797S/EX19DEL/T790M). Description: Inhibition of EGFR Del19/T790M/C797S mutant (unknown origin) phosphorylation.
Chain of Epidermal growth factor receptor (Homo sapiens, UniProt P00533, C797S/EX19DEL/T790M) (P00533 whole entry, looked up, stated change not applied): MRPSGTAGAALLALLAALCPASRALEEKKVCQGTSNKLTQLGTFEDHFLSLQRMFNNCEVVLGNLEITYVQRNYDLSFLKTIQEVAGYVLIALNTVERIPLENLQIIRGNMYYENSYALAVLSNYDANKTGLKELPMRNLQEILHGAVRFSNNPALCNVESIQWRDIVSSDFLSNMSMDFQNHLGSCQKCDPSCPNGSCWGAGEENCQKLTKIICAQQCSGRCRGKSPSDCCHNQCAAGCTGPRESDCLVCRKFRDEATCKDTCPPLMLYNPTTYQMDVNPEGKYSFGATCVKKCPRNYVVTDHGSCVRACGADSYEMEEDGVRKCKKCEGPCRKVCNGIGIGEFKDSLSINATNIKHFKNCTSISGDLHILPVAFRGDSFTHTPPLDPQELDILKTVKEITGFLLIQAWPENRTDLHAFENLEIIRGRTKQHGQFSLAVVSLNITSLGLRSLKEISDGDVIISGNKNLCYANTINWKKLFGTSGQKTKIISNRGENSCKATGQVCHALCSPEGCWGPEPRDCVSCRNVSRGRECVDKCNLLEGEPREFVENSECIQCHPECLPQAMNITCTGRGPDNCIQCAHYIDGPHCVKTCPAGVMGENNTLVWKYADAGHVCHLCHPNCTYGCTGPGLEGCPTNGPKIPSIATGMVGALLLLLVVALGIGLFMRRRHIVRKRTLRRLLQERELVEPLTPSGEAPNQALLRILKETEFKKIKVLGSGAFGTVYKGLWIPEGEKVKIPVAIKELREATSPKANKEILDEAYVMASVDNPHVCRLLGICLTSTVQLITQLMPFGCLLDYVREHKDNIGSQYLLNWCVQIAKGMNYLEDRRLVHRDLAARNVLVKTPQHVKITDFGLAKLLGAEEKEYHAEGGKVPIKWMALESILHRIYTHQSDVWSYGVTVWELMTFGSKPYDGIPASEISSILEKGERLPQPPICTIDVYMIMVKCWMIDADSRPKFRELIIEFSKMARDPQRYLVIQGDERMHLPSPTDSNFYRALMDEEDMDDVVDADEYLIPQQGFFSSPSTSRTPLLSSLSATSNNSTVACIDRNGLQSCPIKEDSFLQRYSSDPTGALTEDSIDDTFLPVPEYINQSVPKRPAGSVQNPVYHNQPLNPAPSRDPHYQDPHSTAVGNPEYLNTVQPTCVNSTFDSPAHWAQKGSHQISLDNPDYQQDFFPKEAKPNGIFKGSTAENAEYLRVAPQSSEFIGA
Test [3] addresses Epidermal growth factor receptor (Homo sapiens, UniProt P00533, C797S/L858R/T790M). Description: Inhibition of EGFR L858R/T790M/C797S mutant (unknown origin) phosphorylation.
The test system of test [4] is BaF3. Description: Inhibition of cell proliferation of mouse BaF3 cells expressing EGFR Del19/T790M/C797S mutant (unknown origin). It counts as functional.
Test [5] concerns BaF3. Description: Inhibition of cell proliferation of mouse BaF3 cells expressing wild-type EGFR (unknown origin). It counts as functional.
The test system of test [6] is BaF3. Description: Inhibition of cell proliferation of mouse BaF3 cells expressing EGFR L858R/T790M/C797S mutant (unknown origin). It counts as functional.

The term IC50 denotes the concentration at which inhibition is half-maximal. Low values mean greater potency, high ones weaker potency. For orientation: GI50 means the concentration at which growth is held to half of that of the control.

Some results are limits rather than exact numbers.

Chain of Epidermal growth factor receptor (Homo sapiens, UniProt P00533, C797S/L858R/T790M) (P00533 25-1210 T790M/C797S/L858R limits assumed): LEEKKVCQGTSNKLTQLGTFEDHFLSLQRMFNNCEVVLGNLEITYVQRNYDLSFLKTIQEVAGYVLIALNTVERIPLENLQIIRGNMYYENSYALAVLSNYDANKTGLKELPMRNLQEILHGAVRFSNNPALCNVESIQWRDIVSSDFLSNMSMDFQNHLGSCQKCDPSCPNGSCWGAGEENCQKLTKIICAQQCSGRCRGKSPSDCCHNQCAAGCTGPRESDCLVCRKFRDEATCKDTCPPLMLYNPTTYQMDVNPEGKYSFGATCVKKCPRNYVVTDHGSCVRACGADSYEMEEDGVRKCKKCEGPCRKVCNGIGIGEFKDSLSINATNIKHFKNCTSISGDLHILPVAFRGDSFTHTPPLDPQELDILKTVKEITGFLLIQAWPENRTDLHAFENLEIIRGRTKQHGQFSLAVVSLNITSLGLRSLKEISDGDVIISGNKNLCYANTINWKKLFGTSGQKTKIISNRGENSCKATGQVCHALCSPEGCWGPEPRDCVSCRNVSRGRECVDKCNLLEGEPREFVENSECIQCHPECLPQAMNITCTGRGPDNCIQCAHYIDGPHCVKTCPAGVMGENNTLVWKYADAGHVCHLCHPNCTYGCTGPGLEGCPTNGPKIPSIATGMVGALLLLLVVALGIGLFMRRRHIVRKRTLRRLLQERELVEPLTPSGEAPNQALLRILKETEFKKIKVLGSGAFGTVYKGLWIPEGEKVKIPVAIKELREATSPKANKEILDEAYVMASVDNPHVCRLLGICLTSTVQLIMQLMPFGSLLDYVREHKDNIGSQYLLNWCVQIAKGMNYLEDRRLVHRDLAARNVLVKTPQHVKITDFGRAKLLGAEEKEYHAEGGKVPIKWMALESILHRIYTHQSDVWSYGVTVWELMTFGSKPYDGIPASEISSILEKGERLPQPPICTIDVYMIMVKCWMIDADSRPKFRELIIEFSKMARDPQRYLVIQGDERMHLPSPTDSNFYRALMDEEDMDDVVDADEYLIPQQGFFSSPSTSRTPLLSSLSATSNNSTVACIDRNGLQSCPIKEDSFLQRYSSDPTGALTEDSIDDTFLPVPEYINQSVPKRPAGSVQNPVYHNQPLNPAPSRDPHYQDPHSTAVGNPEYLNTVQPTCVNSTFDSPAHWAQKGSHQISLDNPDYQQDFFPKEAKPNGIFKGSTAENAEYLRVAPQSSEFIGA
Chain of Epidermal growth factor receptor (Homo sapiens, UniProt P00533) (P00533 whole entry): as the sequence (P00533 whole entry, looked up, stated change not applied) above

For `CC[C@H](C)Nc1cc(Nc2ccnc(-c3cnn(S(=O)(=O)C4CC4)c3)n2)ncc1C(=O)N(C)C`, the IC50 in test [1] is over 5000 nM; in test [2] it was 450 nM; in test [3], 300 nM.
`CC[C@H](C)Nc1cc(Nc2ccnc(-c3cnn(S(=O)(=O)C4CC4)c3)n2)ncc1C(=O)NCCN(C)C`: the GI50 in test [4] (Mus musculus, BaF3) was 193 nM; in test [5] (Mus musculus, BaF3), 1220 nM; in test [6] (Mus musculus, BaF3) it was 446 nM. For the same molecule, the IC50 in test [1] came out at 265 nM; in test [2] it was 11 nM; in test [3] it was 10 nM.
Consider `CC(C)Oc1cc(Nc2ccnc(-c3cnn(S(=O)(=O)C4CC4)c3)n2)ncc1C(=O)N1CC(C(C)(C)O)C1`, for which the IC50 in test [1], in test [2] and in test [3] was over 5000 nM throughout.
For `CC(C)Nc1cc(Nc2ccnc(-c3cnn(S(=O)(=O)C4CC4)c3)n2)ncc1C(=O)N1CC(C(C)(C)O)C1`, the IC50 in test [1] was found to be 552 nM; in test [2] it was 72 nM; in test [3], 51 nM.
Turning to `CC[C@H](C)Nc1cc(Nc2ccnc(-c3cnn(S(=O)(=O)C4CC4)c3)n2)ncc1C(=O)NCCC(F)F`, the GI50 is 35 nM in test [4] (Mus musculus, BaF3); 1080 nM in test [5] (Mus musculus, BaF3); 81 nM in test [6] (Mus musculus, BaF3).
Regarding `CC[C@H](C)Nc1cc(Nc2ccnc(-c3cnn(S(=O)(=O)C4CC4)c3)n2)ncc1C(=O)NCCCF`, the GI50 was 56 nM in test [4] (Mus musculus, BaF3); 1050 nM in test [5] (Mus musculus, BaF3); 129 nM in test [6] (Mus musculus, BaF3). For the same molecule, the values for the IC50 in test [1], in test [2] and in test [3] were 55 nM, 4.5 nM and 3.7 nM, respectively.
Consider `CC[C@H](C)Nc1cc(Nc2ccnc(-c3cnn(S(=O)(=O)C4CC4)c3)n2)ncc1C(=O)NC`, for which the GI50 in test [4] (Mus musculus, BaF3) was 68 nM; in test [5] (Mus musculus, BaF3), 927 nM; in test [6] (Mus musculus, BaF3), 163 nM. In addition, the IC50 in test [1] was found to be 45 nM; in test [2] it was 3.6 nM; in test [3], 3.6 nM.
Take `CCC(=O)c1cnc(Nc2ccnc(-c3cnn(S(=O)(=O)C4CC4)c3)n2)cc1N[C@@H](C)CC`: the IC50 in test [1] came out at 212 nM; in test [2] it was 13 nM; in test [3], 11 nM.
Consider `CCNC(=O)c1cnc(Nc2ccnc(-c3cnn(S(=O)(=O)C4CC4)c3)n2)cc1N[C@@H](C)CC`, for which the GI50 was found to be 72 nM in test [4] (Mus musculus, BaF3); 1270 nM in test [5] (Mus musculus, BaF3); 191 nM in test [6] (Mus musculus, BaF3). Besides, the IC50 was 77 nM in test [1], 6 nM in test [2] and 5.6 nM in test [3].
For the molecule `CCNS(=O)(=O)c1cnc(Nc2ccnc(-c3cnn(S(=O)(=O)C4CC4)c3)n2)cc1N[C@@H](C)CC`, the IC50 in test [1] was over 5000 nM; in test [2], over 5000 nM; in test [3], 4880 nM.
In the case of `CC[C@H](C)Nc1cc(Nc2ccnc(-c3cnn(S(=O)(=O)C4CC4)c3)n2)ncc1C(=O)N1CC(C(C)(C)O)C1`, the results for the IC50 in test [1], in test [2] and in test [3] were 235 nM, 30 nM and 22 nM, respectively.
`CC[C@H](C)Nc1cc(Nc2ccnc(-c3cnn(S(=O)(=O)C4CC4)c3)n2)ncc1C(=O)NC1CCOCC1`: the GI50 in test [4] (Mus musculus, BaF3) was found to be 156 nM; in test [5] (Mus musculus, BaF3), 1660 nM; in test [6] (Mus musculus, BaF3) it was 452 nM.
For `C=CC(=O)Nc1cc(Nc2nccc(-c3cn(C)c4ccccc34)n2)c(OC)cc1N(C)CCN(C)C` [OSIMERTINIB], the figures for the GI50 in test [4], in test [5] and in test [6] were 2060 nM, 107 nM and 1290 nM, respectively.
